The record followed here is US9962465B2, “Amelogenin-chitosan hydrogel for dentin hypersensitivity” (UNIVERSITY OF SOUTHERN CALIFORNIA, priority 2015, dated 2018).

The nature of data set [1]: Nanoindentation test of the newly regenerated layer (modulus, hardness). Also on record: species or system Human. Conditions: for mechanical properties of the newly formed layer compared with healthy dentin: peptide only treatment; for surface hardness of dentin lesions: peptide only, 5 days. The method, then: Human third molars were sectioned transversally into 2 mm thick slices at the mid-coronal region of the tooth. A window of sound dentin measuring 2×2 mm each was delineated by applying two coats of acid-resistant nail varnish on the tooth surfaces. To mimic carious lesions, the samples were immersed in a demineralizing solution (pH 4.6, 30 ml) at 37° C. for 3 days. Twenty μl of peptide only (LRAP, P32, P26) and peptide-chitosan hydrogel (200 μg/ml) were applied separately on the demineralized windows (2 applications: Days 1 & 5) and the tooth slices were immersed in artificial saliva (pH 7, 5 ml) at 37° C. for 5 and 10 days. The artificial saliva includes 1.2 mM Ca^2+, 0.2 mM Mg^2+ 0.7 mM H2PO4^−, 16 mM KCl, 4.5 mM NH4Cl and 50 mM Hepes in water. The artificial saliva solution (5 ml) was changed daily from days 1-10.
FIGS. 18A, 18B, 18C, and 18D provide nanoindentation test results showing changes in the modulus (A,B) and hardness (C, D) of the newly regenerated layer after being treated with peptide only and peptide-chitosan hydrogel for 5 and 10 days. Treatment with LRAP and P32 restored surface hardness of dentin lesions in 5 days.

A short description of data set [2]: TEM of peptide self-assembly. Type of data set: physicochemical. The following applies: pH 7.4, HEPES buffer, 25° C. The text has this:
(Ref: doi:10.1016/j.jsb.2011.07.016).

As for “MPLPSYEVLTPLKWPVHPMQPSTDKTKREEVD (Amelogenin-derived polypeptide) [Peptide P32, Artificial amelogenin-derived polypeptide]”, in data set [1], the “mechanical properties of the newly formed layer compared with healthy dentin” value was “superior mechanical properties than healthy dentin” and the “surface hardness of dentin lesions” value was “restored”. Besides, the TEM assembly morphology entry in data set [2] is on record as “uniformly-dispersed spherical assemblies”.
For the sequence “MPLPPHPGHPGYINFSYEVLTPLKWYQSIRPPPLPPMLPDLTLEAWPSTDKTKREEVD (listed as Homo sapiens) [LRAP, leucine rich amelogenin polypeptide, alternatively spliced isoform of amelogenin]”, in data set [1], the “mechanical properties of the newly formed layer compared with healthy dentin” value is on record as “superior mechanical properties than healthy dentin” and the “surface hardness of dentin lesions” value is recorded as “restored”.
